Reference: publication PMC6611794, “Development of a high-throughput strategy for discovery of potent analogues of antibiotic lysocin E” (Nature Communications, 2019)
Values after ≈ are worked out from the molar mass of the structure shown. Values joined by “and” are separate entries in the source; they are usually repeats but may differ in a detail not shown here. Identical values can stand only once. Like-named read-outs stand apart in the source and are kept apart here. Where a SMILES comes first, the peptide text is derived from it. Bridges are numbered along the chain shown (N, C = ends). [ ]: non-standard residue; d: D form. The star is where a group is joined. Hexanoyl(3R-OH,5-Me) = CC(C)C[C@@H](O)CC(=O)*; dNMeF = CN[C@H](Cc1ccccc1)C(=O)O

Columns and labels:
[1] = On-bead menaquinone complexation assay (fluorescence of 2H); assay type: binding; details: single library bead (hit beads >1000 a.u.), average of three readings
Description: Next, the feasibility of the on-bead complexation assay was assessed using bead-linked lysocin E 30 and MK-4 (2). Our initial assay based on the finding that 1 and 2 form a red precipitate upon complexation (Supplementary Fig. 2) was not robust, because the magnitude of the red color was not proportional to the amount of captured 2 (Fig. 2b, c). We therefore developed a fluorescence-based method for quantifying 2 by reducing its naphthoquinone moiety to fluorescent hydroquinone 2H. One bead of 30 was incubated with 2 in MeOH, washed by MeOH in a microplate well, and then the bead-bound 2 was eluted under more forcing hydrophobic conditions (n-BuOH at 50 °C). The eluate containing 2 was treated with NaBH4 in n-BuOH to produce 2H[46]. The fluorescence intensity of 2H was evaluated to determine the quantity of 2 bound to one bead of 30. The method was found with a small margin of error (1026 ± 64 a.u.), indicating its high accuracy (Fig. 2a and Supplementary Fig. 3). Importantly, the structure of 1 remained intact during the complexation assay as judged by UHPLC and mass analyses.
General procedures for menaquinone complexation assay. To the bead-linked lysocin E analogues in LibraTube was added a solution of menaquinone-4 (2) in MeOH (10 mM, 1.0 mL/1000 beads). The mixture was incubated at room temperature for 12 h. A suspension of the beads in MeOH (200 beads/200 µL) was transferred to a 2.0 mL microtube.
Each bead in the microtube was transferred to each well of a 96-well filtration plate (278011, Thermo Fisher Scientific, 1 bead/well) with the solution of 2 (20 µL/bead) using a micropipette. To each well was added MeOH (400 µL), and the beads was filtered by gravity flow (× 3). The beads in the plate were dried under vacuum for 0.5–1 h. The dried beads were transferred to a 96-well PCR plate (652270, Greiner bio-one, 1 bead/well) with MeOH (20 µL/well) using a micropipette. The solution was removed under a stream of Ar at 40 °C to give the 2-bound bead-linked peptides.
To the 2-bound bead-linked peptides in the plate was added n-BuOH (30 µL/well) at room temperature .
The suspension was incubated at 50 °C for 1 h. The resultant mixture in the plate was centrifuged at 3500 × g at room temperature for 10 sec . The supernatant in each well was transferred to the corresponding well of a black polystyrene flat -bottom 96-well plate (655086, Greiner bio-one). The solution was concentrated under a stream of Ar at 40 °C to give the eluted 2.
To the above eluted 2 in the plate was added n-BuOH (25 µL/well) at room temperature. The plate was vortexed at room temperature for 10 min. To the resultant solution was added a solution of NaBH4 in n-BuOH (1.0 mM, 25 µL/well). The plate was vortexed at room temperature for 10 min. The fluorescence of menahydroquinone (2H, Ex. 250 nm/Em. 430 nm) of each well was measured at room temperature every 3 min (0, 3, and 6 min) on Gemini EM microplate reader (Molecular Devices) . The three fluorescence intensities of each bead were averaged and plotted against the bead number.
Evaluation of menaquinone complexation activities of the selected bead-linked peptides. Bead-linked peptides 30, BLP1, and BLP2 were synthesized according to the above described procedures (loading rate:
0.222 mmol/g). The bead-linked peptides were subjected to the MK complexation assay described above.
The obtained fluorescent intensities of 2H (arbitrary unit) were 1026 ± 64 for 30, 396 ± 27 for BLP1, 72.9 ± 2.0 for BLP2, and 41.6 ± 0.1 for background adsorption (no bead), respectively (Supplementary Figure 3).

[2] = Description: Preparation of LUVs consisting of PC/PG/MK-4 or PC/PG/UQ-10. To a solution of egg yolk phosphatidylcholine (9.48 mg, 12.4 µmol) and egg yolk phosphatidylglycerol (9.66 mg, 12.4 µmol) in CHCl3 (0.208 mL) was added a solution of MK-4 (2) or UQ-10 (3) (0.313 µmol) in CHCl3 (21.8 µL). The solution was concentrated, and dried under vacuum to for m a lipid thin film. The thin film was hydrated and suspended in carboxyfluorescein-containing buffer solution (0.500 mL, 5 mM HEPES, 20 mM carboxyfluorescein , pH 7.5) by vortexing and sonication. After five-times freeze-thaw cycles, the lipid suspension was extruded 19 times through a polycarbonate filter with 0.40 µm of pore siz e in the diameter.
The external carboxyfluorescein -containing buffer was replaced with a carboxyfluorescein -free buffer solution (20 mM HEPES, 1 mM EDTA, pH 7.5) through size exclusion chromatography using disposable PD -10 column. Concentration of egg yolk phosphatidylcholine was determined by using Phospholipid C -Test Wako.
The final concentration of egg yolk phosphatidylcholine was adjusted to 4.0 µM with the carboxyfluorescein -free buffer solution, and the solution was used for membrane disruption ass ay.
Membrane disruption assay. […]
to various concentrations as 5-fold serial dilutions. The solution of peptides (2 µL/well) and the carboxyfluorescein-encapsulated LUV suspension (200 µL/well) were mixed in black polystyrene flat-bottom 96-well plates. The final concentration of peptides ranged from 2970 nM to 0.950 nM. The plates were vortexed at room temperature for 30 min, and then fluorescence of carboxyfluorescein (Ex. 490 nm/Em. 517 nm) of each well was measured at room temperature on Gemini EM microplate reader. Trion X-100/H2O (5/95, 2 µL), MeOH/H2O (4/6, 2 µL), and the LUV suspension were mixed in each plate to determine 100% lysis. MeOH/H2O (4/6, 2 µL) and the LUV suspension were mixed in each plate to determine 0% lysis.
The membrane disruption activities of tested peptides (I) were normalized against 100% lysis by Triton X -100 […]
(Imax) and 0% lysis by MeOH/H2O (4/6) (I0) as following, where Ix is the fluorescence intensity (Supplementary Equation 2).
I = 100 × (Ix – I0) / (Imax – I0) (2)
The membrane-disrupting activities were evaluated as half-maximal response (EC50, nM) values by means of three replicates. Sigmoidal curve fittings were performed on R2 with drc package (Supplementary Figs S7–S9).3 Two-parameter logistic model was applied for the fitting.

[3] = system: MRSA4; assay type: cell-based, Staphylococcus aureus; details: 18 h
Description: Antimicrobial activity assay of bead-derived peptides. […]
plate was added DMSO (1 µL/well). […]
precipitation of the grown cells was examined.
Evaluation of antimicrobial spectra of peptides. The MIC assay was performed according to the Clinical and Laboratory Standards Institute protocols. The antimicrobial activities of the peptides were measured […]
Soy Broth or Müller Hinton Broth agar plates. Bacterial inoculum was prepared by direct suspension of the […]
and incubated at 37 °C for 18 h. […]
inhibited growth of bacteria.

[4] = read-out: EC50 PC/PG/2 1st, PC/PG/2 LUVs, 1st experiment
[5] = read-out: EC50 PC/PG/2 2nd, PC/PG/2 LUVs, 2nd experiment
[6] = read-out: EC50 PC/PG/2 3rd, PC/PG/2 LUVs, 3rd experiment
[7] = read-out: EC50 PC/PG/2, 30 min, room temperature, mean ± SD of three independent experiments

Row | EC50 [2, 4] [nM] | EC50 [2, 5] [nM] | EC50 [2, 6] [nM] | EC50 [2, 7] [nM] | MIC [3] [µg/mL] | Compound | fluorescence intensity of 2H [1] [a.u.] | selectivity index (EC50 against PC/PG/3 divided by EC50 against PC/PG/2) [2] | fluorescence intensity of 2H ([1]; listed as KLVI)
1 | 25.9 | 4.68 | 6.1 | 12.2 ± 11.9 | 0.25 (≈ 0.156 µM) | CC[C@H](C)[C@@H]1NC(=O)[C@@H](Cc2c[nH]c3ccccc23)NC(=O)[C@@H](CCC(N)=O)NC(=O)[C@H](CCC(=O)O)NC(=O)[C@@H](CCCNC(=N)N)NC(=O)[C@H](CC(C)C)NC(=O)[C@@H](Cc2ccccc2)N(C)C(=O)CNC(=O)[C@H](C)NC(=O)[C@@H](CCCNC(=N)N)NC(=O)[C@@H](NC(=O)C[C@H](O)CC(C)C)[C@@H](C)OC(=O)[C@H]([C@@H](C)O)NC1=O [Peptide A1] ({Hexanoyl(3R-OH,5-Me)}-T[dR]AG[dNMeF]L[dR]E[dQ][dW]IT; ester 1-C) | 1237.12 | – | –
2 | 31.1 | 18.3 | 4.6 | 18 ± 13.3 | 0.25 (≈ 0.159 µM) | CC[C@H](C)[C@@H]1NC(=O)[C@@H](Cc2c[nH]c3ccccc23)NC(=O)[C@@H](C(C)C)NC(=O)[C@H](CCC(=O)O)NC(=O)[C@@H](CCCNC(=N)N)NC(=O)[C@H](CC(C)C)NC(=O)[C@@H](Cc2ccccc2)N(C)C(=O)CNC(=O)[C@H](C)NC(=O)[C@@H](CCCNC(=N)N)NC(=O)[C@@H](NC(=O)C[C@H](O)CC(C)C)[C@@H](C)OC(=O)[C@H]([C@@H](C)O)NC1=O [Peptide A2] ({Hexanoyl(3R-OH,5-Me)}-T[dR]AG[dNMeF]L[dR]E[dV][dW]IT; ester 1-C) | 1152.24 | – | –
3 | 7.68 | 14.6 | 9.8 | 10.7 ± 3.5 | 0.125 (≈ 0.0767 µM) | CC[C@H](C)[C@@H]1NC(=O)[C@@H](Cc2c[nH]c3ccccc23)NC(=O)[C@@H](C(C)C)NC(=O)[C@H](CCC(=O)O)NC(=O)[C@@H](CCCNC(=N)N)NC(=O)[C@H](CC(C)C)NC(=O)[C@@H](Cc2ccccc2)N(C)C(=O)CNC(=O)[C@H](CCCCN)NC(=O)[C@@H](CCCNC(=N)N)NC(=O)[C@@H](NC(=O)C[C@H](O)CC(C)C)[C@@H](C)OC(=O)[C@H]([C@@H](C)O)NC1=O [Peptide A3] ({Hexanoyl(3R-OH,5-Me)}-T[dR]KG[dNMeF]L[dR]E[dV][dW]IT; ester 1-C) | – | – | 1439.45 a.u. and 1379.53 a.u.

Row | Compound | EC50 [2, 4] [nM] | EC50 [2, 5] [nM] | EC50 [2, 6] [nM] | EC50 [2, 7] [nM] | MIC [3] [µg/mL] | fluorescence intensity of 2H [1] [a.u.] | selectivity index (EC50 against PC/PG/3 divided by EC50 against PC/PG/2) [2] | fluorescence intensity of 2H ([1]; listed as KLVI)
4 | CC[C@H](C)[C@@H]1NC(=O)[C@@H](Cc2c[nH]c3ccccc23)NC(=O)[C@@H](CCC(N)=O)NC(=O)[C@H](CCC(=O)O)NC(=O)[C@@H](CCCNC(=N)N)NC(=O)[C@H](CC(C)C)NC(=O)[C@@H](Cc2ccccc2)N(C)C(=O)CNC(=O)[C@H](CO)NC(=O)[C@@H](CCCNC(=N)N)NC(=O)[C@@H](NC(=O)C[C@H](O)CC(C)C)[C@@H](C)OC(=O)[C@H]([C@@H](C)O)NC1=O [Peptide 1, Lysocin E] ({Hexanoyl(3R-OH,5-Me)}-T[dR]SG[dNMeF]L[dR]E[dQ][dW]IT; ester 1-C) | 16.7 | 34 | 7.9 | 19.5 | 0.25 (≈ 0.155 µM) | 1369.78 | 4.7 | –
